Non-standard residues stand in square brackets, D forms with d. Residues, ends and D or L forms follow the SMILES beside them. *: point of attachment. Asu = N[C@@H](CCCCCC(=O)O)C(=O)O; dPip = O=C(O)[C@H]1CCCCN1; NHOH = ON*
Experiments:
[1] = target: T1, Histone deacetylase 11 (Homo sapiens) (UniProt Q96DB2); assay: Binding affinity to human HDAC11 assessed as binding constant (k-2)
T1 sequence (whole entry): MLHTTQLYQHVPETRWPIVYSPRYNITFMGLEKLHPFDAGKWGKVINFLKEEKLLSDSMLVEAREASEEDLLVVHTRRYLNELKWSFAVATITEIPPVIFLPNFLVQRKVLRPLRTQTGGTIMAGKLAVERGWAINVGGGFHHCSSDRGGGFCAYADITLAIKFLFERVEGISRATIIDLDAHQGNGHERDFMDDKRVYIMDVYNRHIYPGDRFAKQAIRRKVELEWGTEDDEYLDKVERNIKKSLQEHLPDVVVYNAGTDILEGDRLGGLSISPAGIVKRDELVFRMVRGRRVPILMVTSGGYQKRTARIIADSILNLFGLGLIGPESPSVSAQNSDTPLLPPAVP

[2] = target: T2, Protein deacetylase HDAC6 (Homo sapiens) (UniProt Q9UBN7); assay: Binding affinity to recombinant human HDAC6 using Ac-Leu-Gly-Lys(Ac)-AMC as substrate assessed as residence time
T2 sequence (whole entry): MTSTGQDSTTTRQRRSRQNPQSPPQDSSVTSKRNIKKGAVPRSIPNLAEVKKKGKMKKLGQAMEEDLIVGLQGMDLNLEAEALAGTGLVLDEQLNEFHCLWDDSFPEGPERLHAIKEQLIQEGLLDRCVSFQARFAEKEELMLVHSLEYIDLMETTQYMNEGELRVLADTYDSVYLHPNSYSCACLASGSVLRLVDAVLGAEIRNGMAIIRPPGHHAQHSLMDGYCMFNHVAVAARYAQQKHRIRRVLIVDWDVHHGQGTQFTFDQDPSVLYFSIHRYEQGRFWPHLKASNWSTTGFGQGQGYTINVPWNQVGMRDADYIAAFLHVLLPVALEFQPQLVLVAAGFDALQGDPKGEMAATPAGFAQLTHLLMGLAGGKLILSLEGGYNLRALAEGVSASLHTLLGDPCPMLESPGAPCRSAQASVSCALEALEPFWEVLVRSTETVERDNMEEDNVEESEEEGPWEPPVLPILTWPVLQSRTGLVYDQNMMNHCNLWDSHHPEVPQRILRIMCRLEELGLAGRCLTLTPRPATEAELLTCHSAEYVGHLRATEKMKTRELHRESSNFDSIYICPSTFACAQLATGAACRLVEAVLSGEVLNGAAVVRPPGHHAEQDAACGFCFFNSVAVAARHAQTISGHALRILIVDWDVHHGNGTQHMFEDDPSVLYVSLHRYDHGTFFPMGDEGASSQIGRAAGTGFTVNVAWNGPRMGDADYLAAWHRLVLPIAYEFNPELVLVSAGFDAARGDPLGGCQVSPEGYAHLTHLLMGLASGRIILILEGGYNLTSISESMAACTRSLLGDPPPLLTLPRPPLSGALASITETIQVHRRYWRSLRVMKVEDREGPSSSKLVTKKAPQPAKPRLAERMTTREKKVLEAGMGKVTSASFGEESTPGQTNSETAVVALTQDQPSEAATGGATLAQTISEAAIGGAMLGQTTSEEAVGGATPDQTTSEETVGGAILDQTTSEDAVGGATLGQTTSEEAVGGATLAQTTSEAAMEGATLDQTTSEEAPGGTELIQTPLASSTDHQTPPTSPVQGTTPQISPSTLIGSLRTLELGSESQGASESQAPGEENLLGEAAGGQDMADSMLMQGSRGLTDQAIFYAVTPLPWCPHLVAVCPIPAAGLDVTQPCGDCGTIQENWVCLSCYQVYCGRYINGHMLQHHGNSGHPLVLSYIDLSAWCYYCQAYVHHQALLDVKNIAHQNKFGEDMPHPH

[3] = target: T2, Protein deacetylase HDAC6 (Homo sapiens); assay: Binding affinity to recombinant human HDAC6 using Ac-Leu-Gly-Lys(Ac)-AMC as substrate measured after 60 mins assessed as binding constant (k-2) by fluorescence based assay
Histone deacetylase 3 [4] = target: T3, Histone deacetylase 3 (Homo sapiens, UniProt O15379); assay: Binding affinity to HDAC3 (unknown origin) assessed as inhibition constant
Histone deacetylase 2 = Histone deacetylase 2 (Homo sapiens, UniProt Q92769); assay: Binding affinity to HDAC2 (unknown origin) assessed as inhibition constant(ki,1)
[5] = target: T1, Histone deacetylase 11 (Homo sapiens); assay: Binding affinity to human HDAC11 assessed as binding constant (k2)
Histone deacetylase 3 [6] = target: T3, Histone deacetylase 3; assay: Binding affinity to HDAC3 (unknown origin) assessed as residence time
[7] = target: T4, Protein deacetylase HDAC6 (Homo sapiens, UniProt Q9UBN7); assay: Binding affinity to recombinant human HDAC6 using Ac-Leu-Gly-Lys(Ac)-AMC as substrate measured after 60 mins assessed as inhibition constant by fluorescence based assay
T4 sequence (Q9UBN7 whole entry): T2 sequence (whole entry)

Histone deacetylase 11 = target: T5, Histone deacetylase 11 (Homo sapiens, UniProt Q96DB2); assay: Binding affinity to human HDAC11 assessed as inhibition constant (ki,1)
T5 sequence (Q96DB2 whole entry): T1 sequence (whole entry)

Histone deacetylase 3 [8] = target: T3, Histone deacetylase 3; assay: Binding affinity to HDAC3 (unknown origin) assessed as binding constant(k2)
Histone deacetylase 3 [9] = target: T3, Histone deacetylase 3; assay: Binding affinity to HDAC3 (unknown origin) assessed as binding constant(k-2)
Histone deacetylase 1 = Histone deacetylase 1 (Homo sapiens, UniProt Q13547); assay: Binding affinity to HDAC1 (unknown origin) assessed as inhibition constant(ki,1)
[10] = target: T4, Protein deacetylase HDAC6; assay: Binding affinity to recombinant human HDAC6 using Ac-Leu-Gly-Lys(Ac)-AMC as substrate measured after 60 mins assessed as inhibition constant (ki,1) by fluorescence based assay
[11] = target: T2, Protein deacetylase HDAC6 (Homo sapiens); assay: Binding affinity to recombinant human HDAC6 using Ac-Leu-Gly-Lys(Ac)-AMC as substrate measured after 60 mins assessed as binding constant (k2) by fluorescence based assay
Histone deacetylase 3 [12] = target: T3, Histone deacetylase 3; assay: Binding affinity to HDAC3 (unknown origin) assessed as inhibition constant(ki,1)

T3 sequence (O15379 whole entry): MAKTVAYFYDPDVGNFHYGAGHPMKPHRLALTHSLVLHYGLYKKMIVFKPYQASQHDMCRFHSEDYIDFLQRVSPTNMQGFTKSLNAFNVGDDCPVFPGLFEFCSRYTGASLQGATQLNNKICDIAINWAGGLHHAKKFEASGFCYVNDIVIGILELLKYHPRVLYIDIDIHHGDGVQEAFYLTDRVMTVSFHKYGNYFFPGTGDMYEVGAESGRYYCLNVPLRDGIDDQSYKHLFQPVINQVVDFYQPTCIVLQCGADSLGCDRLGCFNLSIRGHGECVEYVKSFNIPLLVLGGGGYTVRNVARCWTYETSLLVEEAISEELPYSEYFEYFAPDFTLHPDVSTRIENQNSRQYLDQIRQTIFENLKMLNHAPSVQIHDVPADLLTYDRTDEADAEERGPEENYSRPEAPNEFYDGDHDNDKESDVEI
Chain of Histone deacetylase 1 (Q13547 whole entry): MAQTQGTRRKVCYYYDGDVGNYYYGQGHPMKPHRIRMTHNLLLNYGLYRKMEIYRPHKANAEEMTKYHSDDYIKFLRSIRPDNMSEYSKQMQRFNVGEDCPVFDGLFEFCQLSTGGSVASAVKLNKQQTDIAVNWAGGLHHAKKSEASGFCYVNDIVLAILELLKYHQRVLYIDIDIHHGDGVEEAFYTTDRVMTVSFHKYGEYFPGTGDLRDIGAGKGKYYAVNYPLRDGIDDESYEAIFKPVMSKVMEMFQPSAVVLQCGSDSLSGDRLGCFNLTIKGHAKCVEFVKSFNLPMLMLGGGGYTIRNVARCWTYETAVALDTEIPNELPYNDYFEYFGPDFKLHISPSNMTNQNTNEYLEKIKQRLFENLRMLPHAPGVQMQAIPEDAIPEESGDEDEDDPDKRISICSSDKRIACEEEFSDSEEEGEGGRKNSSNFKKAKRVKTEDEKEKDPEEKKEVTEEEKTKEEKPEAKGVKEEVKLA
Chain of Histone deacetylase 2 (Q92769 whole entry): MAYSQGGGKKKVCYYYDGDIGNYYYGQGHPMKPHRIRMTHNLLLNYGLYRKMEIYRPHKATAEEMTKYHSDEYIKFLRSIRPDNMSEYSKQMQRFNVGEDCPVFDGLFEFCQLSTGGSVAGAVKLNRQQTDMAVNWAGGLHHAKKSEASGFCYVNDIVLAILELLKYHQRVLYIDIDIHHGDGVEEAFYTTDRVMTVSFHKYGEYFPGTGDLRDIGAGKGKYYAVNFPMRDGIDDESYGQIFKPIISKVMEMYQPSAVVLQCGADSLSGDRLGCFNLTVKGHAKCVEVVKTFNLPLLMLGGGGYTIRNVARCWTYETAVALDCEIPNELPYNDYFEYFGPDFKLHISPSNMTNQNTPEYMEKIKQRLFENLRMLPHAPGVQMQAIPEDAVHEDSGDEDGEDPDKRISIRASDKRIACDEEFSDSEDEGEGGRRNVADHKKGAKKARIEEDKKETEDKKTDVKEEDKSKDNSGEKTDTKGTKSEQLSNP

K [1]: 0 min⁻¹
TIME [2]: 1.67 h
K [3]: 0.01 min⁻¹
Ki (Histone deacetylase 3 [4]): 0.04 nM
Ki (Histone deacetylase 2): 0.35 nM
K [5]: 0.73 min⁻¹
TIME (Histone deacetylase 3 [6]): 1.85 h
Ki [7]: ~3.6 nM
Ki (Histone deacetylase 11): 18 nM
K (Histone deacetylase 3 [8]): 0.158 min⁻¹
K (Histone deacetylase 3 [9]): 0.009 min⁻¹
Ki (Histone deacetylase 1): 0.32 nM
Ki [10]: 23 nM
K [11]: 0.17 min⁻¹
Ki (Histone deacetylase 3 [12]): 1.6 nM
SMILES: CC[C@H](C)[C@@H]1NC(=O)[C@H](Cc2c[nH]c3ccccc23)NC(=O)[C@H](CCCCCC(=O)NO)NC(=O)[C@H]2CCCCN2C1=O (cyclo([Asu](NHOH)WI[dPip]))

Reference: ChEMBL document CHEMBL5321294, “Evolution of Slow-Binding Inhibitors Targeting Histone Deacetylase Isoforms” (J Med Chem, 2023)
